The values that follow come from ChEMBL document CHEMBL1122963, “[3H]Batrachotoxinin A 20 alpha-benzoate binding to voltage-sensitive sodium channels: a rapid and quantitative assay for local anesthetic activity in a variety of drugs” (J Med Chem, 1985).

The inhibition is the share of the control response that was lost under treatment. Read a low inhibition as little suppression. Usually IC50 stands for the concentration at which inhibition is half-maximal. Higher therefore signals weaker potency in that assay.

Where only a bound is given, the exact number is not on record here.

The target in test [1] is T1, Sodium channel alpha subunits; brain (Types I, II, III) (Homo sapiens, UniProt P35498+Q99250+Q9NY46). To be noted: Cavia porcellus; Cerebral cortex; at 10 µM.
For test [2], the target named is T1, Sodium channel alpha subunits; brain (Types I, II, III). In words: Inhibition of binding of Batrachotoxinin [3H]BTX-B to high affinity sites on voltage dependent sodium channels in a vesicular preparation from guinea pig cerebral cortex. It is filed as tissue-based, Cavia porcellus.

In test [1], `O=C(CCCN1CCC(O)(c2ccc(Cl)cc2)CC1)c1ccc(F)cc1` came in with an inhibition of 85.5%.

In test [2], `CN(C)CCC(c1ccc(Cl)cc1)c1ccccn1` (stereo not given) [CHLORPHENIRAMINE] registered an IC50 of 10 µM. This compound gave an inhibition in test [1] of 49.7%.

In test [2], `CN(C)CCCN1c2ccccc2CCc2ccc(Cl)cc21` [CLOMIPRAMINE] returned an IC50 of less than 10 µM. The inhibition in test [1] is 76.6%.

For `CCCCOc1cc(C(=O)OCCN(CC)CC)ccc1N` [BENOXINATE], the IC50 in test [2] was determined as 2.9 µM. This compound also came in with an inhibition in test [1] of 73.4%.

Regarding `CC(Cc1ccccc1)NCCC(c1ccccc1)c1ccccc1` (stereo not given) [PRENYLAMINE], the IC50 in test [2] stood at 0.3 µM. In addition, in test [1], the inhibition worked out at 98.8%.

On to `CC(C)(C)NCC(O)COc1cccc2c1CCCC2=O` (stereo not given), for which the inhibition in test [1] was determined as 27.3%.

For the compound `CC(C)NCC(O)c1ccc([N+](=O)[O-])cc1` (stereo not given), the inhibition in test [1] stood at 7.9%.

On to `Cn1c(=O)c2nc(-c3ccccc3)[nH]c2n(C)c1=O`, for which, in test [1], the inhibition is 10.9%.

Regarding `CCN(CC)CCCN1C(=O)CC2(CCCc3ccccc32)C1=O` (racemic; form 2) [listing 1 of 2 here], the IC50 in test [2] was found to be 12 µM. This lies in the double-digit micromolar range.

The compound `CN1CCN2c3ccccc3Cc3ccccc3C2C1` (stereo not given) [MIANSERIN] came in with an IC50 in test [2] of 5.5 µM. In test [1], this compound displayed an inhibition of 57.4%.

`CC(C)(C)NC[C@H](O)COc1nsnc1N1CCOCC1` gave an inhibition in test [1] of 8%.

On to `CCN(CC)CCCN1C(=O)CC2(CCCc3ccccc32)C1=O` (racemic; form 2) [listing 2 of 2 here], for which the inhibition in test [1] is 54.1%.

With `Cc1ccc(N(CC2=NCCN2)c2cccc(O)c2)cc1` [PHENTOLAMINE], the IC50 in test [2] was found to be 8.4 µM. The same compound had an inhibition in test [1] of 54.6%.

In the case of `CCN(CC)CCCN1C(=O)CC2(CCCc3ccccc32)C1=O` (racemic; form 1) [listing 1 of 2 here], in test [1], the inhibition turned out to be 25.7%.

In the case of `CN1CC[C@]23CCCC[C@H]2[C@H]1Cc1ccc(O)cc13` [LEVORPHANOL], in test [2], the IC50 came out at 25 µM. This compound showed an inhibition in test [1] of 33%.

Regarding `CN(C)CCC(c1ccccc1)c1ccccn1` (stereo not given) [PHENIRAMINE], in test [2], the IC50 is 33 µM. The inhibition in test [1] stood at 24.9%.

`CCN(CC)CCCC(C)Nc1c2ccc(Cl)cc2nc2ccc(OC)cc12` (stereo not given) [QUINACRINE] registered an IC50 in test [2] of 3.3 µM. The inhibition in test [1] is 73.3%.

`CC[N+](CC)(CC)CC(=O)Nc1c(C)cccc1C.[Cl-]`: in test [2], the IC50 is 97 µM. This compound had an inhibition in test [1] of 52.4%.

As to `CCN(CC)CCOC(=O)C1(C2CCCCC2)CCCCC1` [DICYCLOMINE], the IC50 in test [2] amounted to 28 µM. In test [1], this compound displayed an inhibition of 75%.

In the case of `CC(CN1c2ccccc2Sc2ccccc21)N(C)C` (stereo not given) [PROMETHAZINE], the IC50 in test [2] turned out to be 6.9 µM. Further, in test [1], the inhibition is 61%.

As for `NC[C@H](CC(=O)O)c1ccc(Cl)cc1`, in test [1], the inhibition came to 11.7%.

Compound `CCCCOc1cc(C(=O)NCCN(CC)CC)c2ccccc2n1` [DIBUCAINE] displayed an inhibition in test [1] of 77.4%.

Take (-)-BUTACLAMOL: in test [1], the inhibition is 87.1%.

In test [2], `CCCOc1ccc(C(=O)OCCN(CC)CC)cc1N` [PROPARACAINE] showed an IC50 of 1.9 µM. In addition, the inhibition in test [1] worked out at 79.9%.

As for `OC(CCN1CCCCC1)(c1ccccc1)C1CC2C=CC1C2` (stereo not given) [BIPERIDEN], the IC50 in test [2] was less than 10 µM. In test [1], the inhibition came to 62.9%.

Consider `CC[N+](CC)(CC)CC`, for which the inhibition in test [1] is 1.4%.

For `COc1cc2c(cc1OC)-c1c/c(=N\c3c(C)cc(C)cc3C)n(C)c(=O)n1CC2`, the inhibition in test [1] came to 17.4%.

In the case of `CCOc1ccc(C(=O)OCCN(CC)CC)cc1` [PARETHOXYCAINE], the IC50 in test [2] stood at 24 µM. In test [1], this compound returned an inhibition of 33.2%.

Take `COc1ccc(OC)c(C(O)C(C)NC(C)(C)C)c1` (stereo not given) [BUTOXAMINE]: in test [2], the IC50 was 27 µM. In test [1], the inhibition stood at 26.8%.

In turn, `OCCN1CCN(CCCN2c3ccccc3Sc3ccc(C(F)(F)F)cc32)CC1` [FLUPHENAZINE] returned an IC50 in test [2] of 3.7 µM. The inhibition in test [1] was 72.8%.

For the compound `CNCCCN1c2ccccc2CCc2ccccc21` [DESIPRAMINE], in test [2], the IC50 was 2.4 µM. Moreover, the inhibition in test [1] is 80.3%.

Turning to `Cn1c(=O)c2c(ncn2C)n(C)c1=O` [CAFFEINE], the IC50 in test [2] is 660 µM. Further, the inhibition in test [1] was determined as 9.7%.

With `Cl.NCCCCCCNS(=O)(=O)c1cccc2ccccc12`, the IC50 in test [2] was 22 µM. The inhibition in test [1] came out at 33.3%.

In turn, `COc1ccc(CN(CCN(C)C)c2ccccn2)cc1` came in with an inhibition in test [1] of 44.5%.

Consider `CCCCN(CCCC)CCCOC(=O)c1ccc(N)cc1` [BUTACAINE], for which, in test [2], the IC50 worked out at 2.7 µM. In test [1], this compound registered an inhibition of 75.3%.

`CCN(CC)CCCN1C(=O)CC2(CCCc3ccccc32)C1=O` (racemic; form 1) [listing 2 of 2 here] came in with an IC50 in test [2] of 94 µM.

`COC(=O)[C@@H]1[C@H]2C[C@H]3c4[nH]c5ccccc5c4CCN3C[C@@H]2CC[C@@H]1O` [YOHIMBINE]: in test [2], the IC50 stood at 33 µM. In test [1], the inhibition is 25.6%.

`C[C@H](Cc1ccccc1)Nc1ncnc2c1ncn2[C@@H]1O[C@H](CO)[C@@H](O)[C@H]1O` returned an inhibition in test [1] of 2.2%.

In turn, `CCCCC1=C(N(C)C)c2cc3c(cc2C1)OCO3` yielded an IC50 in test [2] of 12.5 µM. Also, the inhibition in test [1] amounted to 45%.

Regarding `CCCC[N+]1(C)CCCCC1C(=O)Nc1c(C)cccc1C.[I-]` (stereo not given), the IC50 in test [2] came out at 4.8 µM. In test [1], this compound yielded an inhibition of 64.5%.

On to `CCOc1ccc(/N=C(\C)Nc2ccc(OCC)cc2)cc1` [PHENACAINE], for which, in test [2], the IC50 was 1.7 µM. The inhibition in test [1] was 81.1%.

For the compound `CCCCN1CCCCC1C(=O)Nc1c(C)cccc1C` (stereo not given) [BUPIVACAINE], the inhibition in test [1] was 63.4%.

For `O=C1C[C@@H]2OCC=C3CN4CC[C@]56c7ccccc7N1[C@H]5[C@H]2[C@H]3C[C@H]46` [STRYCHNINE], in test [2], the IC50 stood at 21 µM. For the same compound, in test [1], the inhibition was found to be 35.7%.

As to `C[N+](C)(CC(=O)Nc1ccccc1)CC(=O)Nc1ccccc1.[Cl-]` [CARCAINIUM CHLORIDE], the IC50 in test [2] is 3.9 µM. The compound also gave an inhibition in test [1] of 71.6%.

In test [2], `CN(C)CCCN1c2ccccc2CCc2ccccc21` [IMIPRAMINE] had an IC50 of 3.6 µM. The compound further had an inhibition in test [1] of 72.7%.

For `C[N+](C)(C)CCOC(c1ccccc1)c1ccccc1.[I-]`, in test [2], the IC50 is 64 µM. Also, the inhibition in test [1] is 69%.

`CN1CCC(=C2c3ccccc3C=Cc3ccccc32)CC1` [CYPROHEPTADINE] returned an IC50 in test [2] of 1 µM. The inhibition in test [1] was 83%.

Compound `COc1ccc(CCN(C)CCCC(C#N)(c2ccc(OC)c(OC)c2)C(C)C)cc1OC` (stereo not given) came in with an inhibition in test [1] of 74.4%.

In turn, `CN(C)CCC=C1c2ccccc2COc2ccccc21` [DOXEPIN] gave an IC50 in test [2] of less than 10 µM. Further, the inhibition in test [1] came out at 67.7%.

With `OC(c1ccccc1)(c1ccccc1)C1CCNCC1` [AZACYCLONOL], the IC50 in test [2] was found to be 14 µM. This compound came in with an inhibition in test [1] of 43.2%.

In the case of `O=C1NC(=O)C(c2ccccc2)(c2ccccc2)N1`, the inhibition in test [1] came out at 18.5%.

For `CCCCNc1ccc(C(=O)OCCN(C)C)cc1`, in test [1], the inhibition was 72%.

The compound `CN(C)CCCn1c2c(c3ccccc31)CCCCCC2` came in with an inhibition in test [1] of 42.4%.

The compound `CCN(CC)CCOC(=O)c1ccc(N)cc1` [PROCAINE] gave an IC50 in test [2] of 110 µM. In test [1], this compound gave an inhibition of 47.3%.

On to `CN(C)C/C=C(/c1ccc(Br)cc1)c1cccnc1`, for which the inhibition in test [1] turned out to be 34.6%.

In test [2], `CNCCCC1c2ccccc2C=Cc2ccccc21` [PROTRIPTYLINE] had an IC50 of less than 10 µM. Also, the inhibition in test [1] amounted to 70.3%.

For `COC(=O)C1=C(C)NC(C)=C(C(=O)OC)C1c1ccccc1[N+](=O)[O-]`, the inhibition in test [1] was determined as 26%.

Take `C=C[C@H]1CN2CC[C@H]1C[C@@H]2[C@@H](O)c1ccnc2ccc(OC)cc12` [QUINIDINE]: the inhibition in test [1] turned out to be 74.1%.

In turn, `NCC(CC(=O)O)c1ccc(Cl)cc1` (stereo not given) returned an inhibition in test [1] of 6.2%.

`CC(=O)Nc1ccc(OCC(O)CNC(C)C)cc1` (stereo not given) displayed an inhibition in test [1] of 8.4%.

`CCCN(CC)C(CC)C(=O)Nc1c(C)cccc1C` (stereo not given) [ETIDOCAINE]: the inhibition in test [1] was 73.2%.

As to `CC(C)CCC[C@@H](C)[C@H]1CC[C@H]2[C@@H]3CC=C4C[C@@H](O)CC[C@]4(C)[C@H]3CC[C@]12C`, the inhibition in test [1] stood at 3.3%.

With `COc1ccc(CCN(C)CCCC2(c3ccc(OC)c(OC)c3)S(=O)(=O)CCCS2(=O)=O)cc1OC`, the half-inhibitory concentration (IC50) in test [2] was found to be 13.5 µM.

`NC(=O)N1c2ccccc2C=Cc2ccccc21` had an inhibition in test [1] of 1.6%.

`CC(C)[C@@]1(O)[C@@H](OC(=O)c2cc[nH]c2)[C@@]2(O)[C@]3(C)C[C@@]4(O)O[C@@]5([C@H](O)[C@@H](C)CC[C@]35O)[C@@]2(O)[C@@]41C`: the inhibition in test [1] turned out to be 0%.

In turn, `COc1cc2c3cc1Oc1cc(ccc1O)C[C@@H]1c4c(cc(OC)c(O)c4Oc4ccc(cc4)C[C@@H]3N(C)CC2)CC[N+]1(C)C` displayed an inhibition in test [1] of 3%.

Turning to `COC(=O)[C@H]1[C@H]2C[C@H]3c4[nH]c5ccccc5c4CCN3C[C@H]2CC[C@@H]1O`, the inhibition in test [1] was determined as 13.1%.

`CCCCOc1cc(CC2CNC(=O)N2)ccc1OC` (stereo not given): the inhibition in test [1] came out at 14.1%.

`O=C(CCCN1CCC2(CC1)C(=O)NCN2c1ccccc1)c1ccc(F)cc1` [SPIPERONE]: the inhibition in test [1] came out at 98.7%.

As for `COc1ccc2c3c1O[C@H]1[C@@H](O)C=C[C@H]4[C@@H](C2)N(C)CC[C@@]341`, the inhibition in test [1] stood at 5.7%.

As to `C=CCC1(C(C)CCC)C(=O)NC(=O)NC1=O` (stereo not given), the inhibition in test [1] was found to be 4.4%.

In the case of `C=C[C@H]1CN2CC[C@H]1C[C@H]2[C@H](O)c1ccnc2ccc(OC)cc12` [QUININE], the inhibition in test [1] was determined as 69.3%.

In test [1], `COC(=O)[C@H]1[C@H]2C[C@H]3c4[nH]c5ccccc5c4CCN3C[C@@H]2CC[C@@H]1O` returned an inhibition of 33.7%.

Turning to `CCC1(c2ccccc2)C(=O)NC(=O)NC1=O`, the inhibition in test [1] is 5.4%.

With `O=C(O)c1ccccc1Nc1cccc(C(F)(F)F)c1`, the inhibition in test [1] turned out to be 26.7%.

In the case of `CC/C(=C(/CC)c1ccc(O)cc1)c1ccc(O)cc1`, the inhibition in test [1] is 30.1%.
